According to PubChem BioAssay AID1033 (Sanford-Burnham Center for Chemical Genomics, 2008):
Active and inactive are the calls of the source. How the calls were made is not given here.

Each compound was assayed against Chaperone protein DnaK (Escherichia coli (strain K12)) (UniProt P0A6Y8) (assay: binders of DnaK substrate-binding domain, biophysical, NMR, chaperone (AID 1033)). Details: Purified DnaK SBD, NMR ligand binding.
Sequence of Chaperone protein DnaK (Escherichia coli (strain K12)) (P0A6Y8 whole entry, looked up, the tested form may be a part): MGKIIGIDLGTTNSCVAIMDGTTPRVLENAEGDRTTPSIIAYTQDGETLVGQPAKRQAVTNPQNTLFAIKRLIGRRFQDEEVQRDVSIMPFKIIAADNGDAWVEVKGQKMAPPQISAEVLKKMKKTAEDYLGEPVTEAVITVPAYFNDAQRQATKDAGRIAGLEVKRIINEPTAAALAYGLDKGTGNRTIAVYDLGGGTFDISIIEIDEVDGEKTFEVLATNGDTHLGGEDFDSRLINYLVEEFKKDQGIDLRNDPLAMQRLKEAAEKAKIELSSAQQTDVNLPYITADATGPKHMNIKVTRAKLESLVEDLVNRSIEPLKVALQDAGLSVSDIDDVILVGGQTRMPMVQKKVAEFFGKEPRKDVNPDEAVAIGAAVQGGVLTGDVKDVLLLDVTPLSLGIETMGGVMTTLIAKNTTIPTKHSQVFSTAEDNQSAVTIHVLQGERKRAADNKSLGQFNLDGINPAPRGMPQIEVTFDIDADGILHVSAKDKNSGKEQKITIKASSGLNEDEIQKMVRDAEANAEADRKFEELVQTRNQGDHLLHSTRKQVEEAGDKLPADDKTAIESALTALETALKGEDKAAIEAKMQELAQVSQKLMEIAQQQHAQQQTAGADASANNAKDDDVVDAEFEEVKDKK
With `N#CCc1nc2ccccc2s1` the Kd was > 4 mM (inactive).
`O=C(NCCCO)c1ccncc1` was tested, and the Kd was > 4 mM (inactive).
With `CN1C(=O)c2ccc(N=C3NC(=O)CS3)cc2C1=O` the Kd was > 4 mM (inactive).
For `O=C(O)CNc1ncnc2nc[nH]c12`, the Kd was > 4 mM (inactive).
With `C=CC(C1=CC(=O)C(OC)=CC1=O)c1ccccc1` (centres undefined) the Kd was > 4 mM (inactive).
`Cc1ccc(/C=C/C(=O)O)cc1S(=O)(=O)NCCO` was tested, and the Kd was > 4 mM (inactive).
For `COc1cc(C(=O)O[C@H]2CC[C@@]3(C)[C@@H]4CC[C@H]5[C@]6(O)C[C@H](O)[C@@]7(O)[C@@H](CN8C[C@@H](C)CC[C@H]8[C@@]7(C)O)[C@]6(O)C[C@@]53OC24O)cc(OC)c1OC`, the Kd was > 4 mM (inactive).
`Cc1nc2sccn2c1C(=O)O` was tested, and the Kd was > 4 mM (inactive).
In the case of `COC(=O)C1Cc2ccccc2N1` (centres undefined), the Kd is reported as > 4 mM (inactive).
In the case of `O=C(O)CC[N+](=O)[O-]`, the Kd is reported as > 4 mM (inactive).
In the case of `O=C(O)CC1C(=O)NCCN1Cc1ccccc1` (centres undefined), the Kd is reported as > 4 mM (inactive).
In the case of `O=C(O)c1ccc(-n2cccn2)cc1`, the Kd is reported as > 4 mM (inactive).
In the case of `Cc1ccc(CO)o1`, the Kd is reported as > 4 mM (inactive).
For `CCOC(=O)CC1NCCNC1=O` (centres undefined), the Kd was > 4 mM (inactive).
With `O=C(O)CCc1ccc2c(c1)OCO2` the Kd was > 4 mM (inactive).
With `CN(C)C(=O)Oc1ccc(-c2nnco2)cc1` the Kd was > 4 mM (inactive).
With `COc1cc(O)c2c(c1)C(=O)c1cc(C)cc(O)c1C2=O` the Kd was > 4 mM (inactive).
In the case of `O=c1cc(O)n(-c2ccc(F)cc2)c(=S)[nH]1`, the Kd is reported as > 4 mM (inactive).
With `O=C(O)CCC(=O)Nc1ccccn1` the Kd was > 4 mM (inactive).
With `NC(=O)CSc1nc2ccccc2c(=O)[nH]1` the Kd was > 4 mM (inactive).
With `OCC1=Cc2ccccc2OC1` the Kd was > 4 mM (inactive).
For `COc1cc2c3cc1Oc1cc(ccc1O)C[C@@H]1c4c(cc(OC)c(O)c4Oc4ccc(cc4)C[C@@H]3N(C)CC2)CC[N+]1(C)C`, the Kd was > 4 mM (inactive).
With `NS(=O)(=O)c1ccc(F)cc1` the Kd was > 4 mM (inactive).
In the case of `CC(=O)O[C@H]1CC[C@]2(C)C3CC[C@@]4(C)C(CC5O[C@@]6(CCC(C)CO6)[C@@H](C)C54)C3CC[C@@H]2C1` (some centres undefined), the Kd is reported as > 4 mM (inactive).
`CN(C)C(=O)CSc1nc2ccccc2c(=O)[nH]1` was tested, and the Kd was > 4 mM (inactive).
For `O=C(O)/C=C/C=C/c1ccccc1`, the Kd was > 4 mM (inactive).
With `Cc1cc(=O)n(C(N)=S)[nH]1` the Kd was > 4 mM (inactive).
With `O=C(O)C1CC(=O)N(Cc2cccs2)C1` (centres undefined) the Kd was > 4 mM (inactive).
With `O=c1ccnc(Nc2ccccc2O)[nH]1` the Kd was > 4 mM (inactive).
In the case of `COc1cc2c(cc1OC)-c1cc3ccc(OC)c(OC)c3c[n+]1CC2`, the Kd is reported as > 4 mM (inactive).
`Cc1cc(C)cc(OC(=O)N2CCOCC2)c1` was tested, and the Kd was > 4 mM (inactive).
In the case of `Cn1ncc(SCc2ccco2)c(Cl)c1=O`, the Kd is reported as > 4 mM (inactive).
For `O=S1(=O)CCC(NC(=S)Nc2ccc(O)cc2)C1` (centres undefined), the Kd was > 4 mM (inactive).
With `Nc1cccc(S(=O)(=O)N2CCOCC2)c1` the Kd was > 4 mM (inactive).
With `O=C(Nc1cccnc1)c1cnn2cccnc12` the Kd was > 4 mM (inactive).
For `c1ccc(Cc2nnc3sc(-c4ccccn4)nn23)cc1`, the Kd was > 4 mM (inactive).
`CCOc1ccc2ccccc2c1C(=O)N1CCOCC1` was tested, and the Kd was > 4 mM (inactive).
In the case of `COC(=O)c1ccccc1NC(=O)c1cc[n+]([O-])cc1`, the Kd is reported as > 4 mM (inactive).
`CCCCCC1C(=O)CCC1CC(=O)OC` (centres undefined) was tested, and the Kd was > 4 mM (inactive).
`CSc1cc(C)[nH]c(=O)n1` was tested, and the Kd was > 4 mM (inactive).
With `CC(=O)Oc1ccc2c(c1C(C)C)CCC1C(C)(C)CCC[C@]21C` (some centres undefined) the Kd was > 4 mM (inactive).
For `C=CCCCCCCCCCCCC(O)CC(O)COC(C)=O` (centres undefined) (tested in a mixture with another compound), the Kd was > 4 mM (inactive).
For `C[C@@H]1C(=O)O[C@H]2[C@H]1CC[C@@]1(C)C=CC(=O)[C@@]3(C)O[C@@]213`, the Kd was > 4 mM (inactive).
In the case of `CC(=O)OC[C@H]1O[C@@H](Oc2cc(OC(C)=O)c3c(=O)cc(-c4ccc(OC(C)=O)cc4)oc3c2)[C@H](OC(C)=O)[C@@H](OC(C)=O)[C@@H]1OC(C)=O`, the Kd is reported as > 4 mM (inactive).
`OCc1ccc(CN2CCOCC2)cc1` was tested, and the Kd was > 4 mM (inactive).
With `N[C@@H](C(=O)O)[C@@H](O)[C@H](O)[C@H](O)CO` the Kd was > 4 mM (inactive).
In the case of `C#CCCCCCCCCCCCc1ccco1`, the Kd is reported as > 4 mM (inactive).
For `CCC1C(=O)OCC1Cc1cncn1C` (centres undefined), the Kd was > 4 mM (inactive).
`CCSc1nnc(-c2ccccc2N)c(=O)[nH]1` was tested, and the Kd was > 4 mM (inactive).
With `O=C1CCC(C(=O)NCc2ccc(Cl)cc2)N1` (centres undefined) the Kd was > 4 mM (inactive).
For `Nc1ccc(S(=O)(=O)N2CCOCC2)cc1`, the Kd was > 4 mM (inactive).
`Cc1occc1C(=O)Nc1ccc2c(c1)OCO2` was tested, and the Kd was > 4 mM (inactive).
For `O=C(O)c1cc(O)c2c(c1)[C@@H]([C@H]1c3cc(C(=O)O)cc(O)c3C(=O)c3c(O[C@H]4O[C@H](CO)[C@@H](O)[C@H](O)[C@H]4O)cccc31)c1cccc(O[C@H]3O[C@H](CO)[C@@H](O)[C@H](O)[C@H]3O)c1C2=O`, the Kd was > 4 mM (inactive).
In the case of `OCCNC(=S)Nc1ccccc1`, the Kd is reported as > 4 mM (inactive).
For `Nc1ccncc1`, the Kd was > 4 mM (inactive).
In the case of `Cc1ccc(C)c(C(=O)NCc2ccncc2)c1`, the Kd is reported as > 4 mM (inactive).
With `C(=N\c1nccs1)/c1cccnc1` the Kd was > 4 mM (inactive).
`CN1C(=O)/C(=C/c2ccccc2O)NC1=S` was tested, and the Kd was > 4 mM (inactive).
With `CNCc1ccco1` the Kd was > 4 mM (inactive).
